The values below come from ChEMBL document CHEMBL1201862, “PubChem BioAssay data set” (2004).

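Values below derive from 48-hour exposures of cells grown in 96-well plates, with endpoints linearly interpolated between the two concentrations bracketing the appropriate inhibition level. GI50 = concentration required for 50% inhibition of growth.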 Active and inactive are the calls of the source. Cut-off read from the data, not from the text of the source: active = GI50 up to about 1.1 µM and inactive = higher.

Among the test systems are HOP-62; CCRF-CEM; OVCAR-3; UACC-62; SF-295; SF-268; NCI-H460; IGROV-1; SNB-75; OVCAR-4; BT-549; M14; SK-MEL-28; U-251; NCI-H226; UACC-257; PC-3; MDA-MB-231; HOP-92; Hs-578T.
Assay in all cases: growth of human tumour cells (NCI), 48 h

With `COc1cc(/C=C(\C#N)c2ccccn2)cc(Br)c1O`, the GI50 in the test with HOP-62 is 28.8 µM (inactive); with CCRF-CEM, 31.3 µM (inactive); with OVCAR-3, 31.8 µM (inactive); with UACC-62, 55.7 µM (inactive); with SF-295 it was 37.8 µM (inactive); with SF-268, 51.4 µM (inactive). Further, the GI50 with NCI-H460 was 36.3 µM (inactive); in the test with IGROV-1, 54.7 µM (inactive); with SNB-75, 37 µM (inactive); with OVCAR-4, > 100 µM (inactive); with BT-549, 34.1 µM (inactive); in the test with M14, 34.2 µM (inactive). In addition, the GI50 with SK-MEL-28 was 26.8 µM (inactive); in the test on U-251, 28 µM (inactive); in the test on NCI-H226, 72.6 µM (inactive); in the test on UACC-257, 48.8 µM (inactive); in the test with PC-3, 68.1 µM (inactive).

Regarding `COc1cc(C(=O)N(C(=O)N2CCCCC2)c2ccccc2)cc(OC)c1OC`, the GI50 in the test on MDA-MB-231, with HOP-62, in the test with CCRF-CEM, in the test on OVCAR-3, with UACC-62 and in the test with SF-295 was > 100 µM (inactive) each time. For the same compound, the GI50 in the test on NCI-H460, with IGROV-1, in the test on SNB-75, with BT-549, in the test on M14 and in the test on SK-MEL-28 was > 100 µM (inactive) each time. Also, the GI50 in the test on U-251, with NCI-H226, in the test with UACC-257, in the test on PC-3 and in the test on HOP-92 was > 100 µM (inactive) in each case.

In the case of `O=C(O)/C=C\C(=O)Nn1c(Cc2ccc(Cl)cc2)n[nH]c1=O`, the GI50 with MDA-MB-231, in the test on HOP-62, in the test with CCRF-CEM, in the test on OVCAR-3, in the test with UACC-62 and in the test with SF-295 was > 100 µM (inactive) throughout. The GI50 with SF-268, with NCI-H460, with IGROV-1, in the test on OVCAR-4, in the test on Hs-578T and with BT-549 was > 100 µM (inactive) throughout. The GI50 in the test with M14, in the test with U-251, with NCI-H226, with UACC-257 and with PC-3 was > 100 µM (inactive) each time.

With `CCOC(=O)c1ccc(N(C)Cc2cnc3nc(N)nc(N)c3n2)cc1`, the GI50 with MDA-MB-231 is 21.7 µM (inactive); in the test on HOP-62, 13 µM (inactive); in the test on CCRF-CEM, 89.9 µM (inactive); in the test on OVCAR-3, 14.5 µM (inactive); in the test on UACC-62, 5.42 µM (inactive); in the test with SF-295 it was 10.2 µM (inactive). The GI50 in the test on SF-268 is 9.51 µM (inactive); in the test on NCI-H460, 9.79 µM (inactive); with IGROV-1 it was 5.71 µM (inactive); in the test with SNB-75, 16.3 µM (inactive); in the test on Hs-578T it was 12.7 µM (inactive); in the test with BT-549, 17.3 µM (inactive). The GI50 in the test on M14 is 7.83 µM (inactive); in the test on SK-MEL-28 it was 17.9 µM (inactive); in the test on U-251, 8.99 µM (inactive); with NCI-H226, 20.1 µM (inactive); in the test with UACC-257 it was 9.77 µM (inactive); in the test on PC-3 it was 5.02 µM (inactive).

For `N#Cc1[nH]c(=O)n(-c2ccc(Cl)cc2)c1N`, the GI50 in the test on MDA-MB-231, in the test on HOP-62, with CCRF-CEM, in the test with OVCAR-3, with UACC-62 and with SF-295 was > 10 µM (inactive) throughout. Besides, the GI50 in the test with SF-268, with NCI-H460, in the test with IGROV-1, in the test on OVCAR-4, with Hs-578T and with BT-549 was > 10 µM (inactive) throughout. For the same compound, the GI50 with M14, in the test on SK-MEL-28, with U-251, in the test on NCI-H226, in the test on UACC-257 and in the test with PC-3 was > 10 µM (inactive) each time.

Turning to `COc1ccc(C2N(c3ccc(C)c(N=C=O)c3)C(=O)N3C(c4ccc(OC)cc4)N(c4ccc(C)c(N=C=O)c4)C(=O)N23)cc1` (centres undefined), the GI50 in the test with MDA-MB-231, in the test with HOP-62, in the test on CCRF-CEM, in the test on OVCAR-3, with SF-295 and with SF-268 was > 100 µM (inactive) each time. For the same compound, the GI50 was > 100 µM (inactive) in the test with NCI-H460; 38.9 µM (inactive) in the test with IGROV-1; 37.7 µM (inactive) in the test on SNB-75; > 100 µM (inactive) in the test with OVCAR-4; > 100 µM (inactive) in the test with BT-549; 29.1 µM (inactive) in the test on M14. For the same compound, the GI50 was > 100 µM (inactive) in the test on SK-MEL-28; > 100 µM (inactive) in the test with U-251; > 100 µM (inactive) with NCI-H226; > 100 µM (inactive) with UACC-257; > 100 µM (inactive) in the test with PC-3; 83.2 µM (inactive) with HOP-92.

For `COc1ccc(/N=N/C(=O)NC(CC(C)C)C(=O)NC(Cc2ccccc2)C(=O)O)cc1` (centres undefined), the GI50 with HOP-62 was > 100 µM (inactive); in the test with CCRF-CEM, 0.929 µM (active); in the test with OVCAR-3, 16.5 µM (inactive); in the test with UACC-62, 0.711 µM (active); in the test on SF-295 it was 1.62 µM (inactive); in the test with SF-268, 1.53 µM (inactive). Further, the GI50 with NCI-H460 is 3.78 µM (inactive); in the test on IGROV-1 it was 11.5 µM (inactive); with SNB-75 it was 61.4 µM (inactive); in the test with OVCAR-4, 57.5 µM (inactive); in the test on Hs-578T, > 100 µM (inactive); in the test on BT-549, > 100 µM (inactive). Besides, the GI50 was 0.459 µM (active) in the test on M14; 4.85 µM (inactive) with SK-MEL-28; > 100 µM (inactive) in the test with U-251; 23.3 µM (inactive) in the test with NCI-H226; 3.41 µM (inactive) in the test on UACC-257; 0.463 µM (active) in the test on PC-3. Besides, the GI50 in the test with HOP-92 is 16.2 µM (inactive).

In the case of `CCCC(=O)N/S(=N/S(=O)(=O)c1ccc(Cl)cc1)C(Cl)(Cl)Cl` (centres undefined), the GI50 in the test with MDA-MB-231, in the test with HOP-62, in the test on CCRF-CEM, in the test on OVCAR-3, in the test on UACC-62 and in the test with SF-295 was > 100 µM (inactive) throughout. Moreover, the GI50 in the test on SF-268, with NCI-H460, in the test with IGROV-1, in the test with Hs-578T, with BT-549 and with M14 was > 100 µM (inactive) each time. Also, the GI50 with SK-MEL-28 is > 100 µM (inactive); in the test on U-251, 47.9 µM (inactive); with NCI-H226, > 100 µM (inactive); in the test with PC-3, > 100 µM (inactive).

As for `CCCCn1c(C)c(C)c2c1NN=C(C#N)S2(=O)=O`, the GI50 in the test with MDA-MB-231, in the test with HOP-62, in the test with OVCAR-3, in the test on UACC-62, in the test on SF-268 and in the test with NCI-H460 was > 100 µM (inactive) in each case. Also, the GI50 in the test on IGROV-1, in the test with SNB-75, in the test on OVCAR-4, with Hs-578T, in the test with BT-549 and in the test with M14 was > 100 µM (inactive) each time. For the same compound, the GI50 with SK-MEL-28, in the test with U-251, in the test on UACC-257 and in the test on PC-3 was > 100 µM (inactive) in each case.

With `NC1CC(N)c2c(Br)sc(Br)c21` (centres undefined), the GI50 in the test on MDA-MB-231 is > 100 µM (inactive); with HOP-62 it was 86.1 µM (inactive); with CCRF-CEM, > 100 µM (inactive); with OVCAR-3, > 100 µM (inactive); with UACC-62, > 100 µM (inactive); in the test with SF-295 it was 98.9 µM (inactive). Moreover, the GI50 with SF-268 was 67.3 µM (inactive); with NCI-H460 it was > 100 µM (inactive); with IGROV-1 it was 39.1 µM (inactive); in the test on OVCAR-4, > 100 µM (inactive); in the test on Hs-578T it was > 100 µM (inactive); in the test on BT-549 it was > 100 µM (inactive). For the same compound, the GI50 was > 100 µM (inactive) in the test on M14; > 100 µM (inactive) with SK-MEL-28; > 100 µM (inactive) in the test on U-251; 77.1 µM (inactive) with NCI-H226; > 100 µM (inactive) in the test with UACC-257; 28.6 µM (inactive) in the test with HOP-92.

In the case of `O=C1Nc2ccccc2C(=O)/C1=C/NC(=S)NCc1ccccc1`, the GI50 in the test with MDA-MB-231, in the test on HOP-62, in the test on OVCAR-3, with UACC-62, in the test with SF-295 and in the test on IGROV-1 was > 100 µM (inactive) each time. Besides, the GI50 in the test on SNB-75, in the test on BT-549, in the test with M14, with SK-MEL-28, in the test with U-251 and with NCI-H226 was > 100 µM (inactive) throughout. The GI50 in the test on UACC-257, in the test with PC-3 and in the test with HOP-92 was > 100 µM (inactive) each time.
